Source: the NIST ThermoML archive (doi:10.1021/acs.jced.5b00903)
Numbers after ± are expanded uncertainties.

Details: surface light scattering

surface tension liquid-gas (298.15 K) | surface tension liquid-gas (303.15 K) | surface tension liquid-gas (308.15 K) | surface tension liquid-gas (313.15 K) | surface tension liquid-gas (318.15 K) | surface tension liquid-gas (323.15 K) | surface tension liquid-gas (288.15 K) | surface tension liquid-gas (293.15 K) | SMILES
23.31 ± 0.24 mN/m | 22.9 ± 0.24 mN/m | 22.52 ± 0.23 mN/m | 22.1 ± 0.23 mN/m | 21.68 ± 0.22 mN/m | 21.27 ± 0.22 mN/m | – | – | CCCO [propan-1-ol]
21.85 ± 0.23 mN/m | 21.41 ± 0.22 mN/m | 21.04 ± 0.22 mN/m | 20.62 ± 0.21 mN/m | 20.29 ± 0.21 mN/m | – | 22.72 ± 0.23 mN/m | 22.31 ± 0.23 mN/m | CCO [ethanol]
18.3 ± 0.18 mN/m | 17.9 ± 0.18 mN/m | 17.43 ± 0.18 mN/m | 17.09 ± 0.17 mN/m | 16.56 ± 0.17 mN/m | 16.2 ± 0.2 mN/m | 19.14 ± 0.19 mN/m | – | CC(C)CC(C)(C)C [2,2,4-trimethylpentane]
